Test results reported in US20240355418A1, “MULTIPLEX, TEMPORALLY RESOLVED MOLECULAR SIGNAL RECORDER AND RELATED METHODS” (University of Washington, priority 2021, published 2024).
“And” between values parts separate entries of the source, which are not always exact repeats. Identical values can stand only once.

Assays:
Format in all cases: cell-based
HEK293T cells [1] = assay: Screen of 48 3×TAPE constructs: efficiency and sequential error rate; conditions: for Sequential error rate (in words): 48 tested tapes
Experimental: In each of these 48 constructs, a 3×TAPE region was accompanied by a pegRNA-expressing cassette designed to target it with a 4-6 bp insertion (16 possible 2-bp barcodes followed by a 2-4 bp key sequence). HEK293T cells were transiently transfected with PE2-encoding plasmid and a pool of 48 pegRNA-by-3×TAPE constructs and harvested them after four days. The 3×TAPE region was PCR-amplified from genomic DNA and sequenced.
Two quantities were calculated for each 3×TAPE array: (1) efficiency, calculated by summing all edited reads and dividing by the total number of reads; and (2) sequential error rate, calculated by summing all edited reads inconsistent with sequential, directional editing and dividing by the total number of edited reads (FIG. 7B). […] Indeed, across the full experiment, a longer key sequence was associated with a lower sequential error rate (FIG. 7C). […] Performance characteristics were highly consistent when the experiment was repeated with integration rather than transient transfection of the constructs (FIG. 7E).

HEK293T cells [2] = assay: DNA Typewriter: sequential prime editing of integrated TAPE-1 arrays, pegRNA pool + PE2, amplicon sequencing; conditions: for Overall editing rate: reads exhibiting any editing, of all reads: pegRNA pool + PE2, four days
Excerpt: To test this idea, DNA Tape (“TAPE-1”) was designed by modifying a spacer sequence previously shown to be highly amenable to prime editing by the PE2 enzyme (HEK293 target 3 or HEK3). In TAPE-1, a 3-bp key (GGA) is followed by one tandem array of a 14-bp monomer (TGATGGTGAGCACG) (SEQ ID NO: 57) that includes the PAM sequence (TGG) at positions 4-6. At the 5′-most end of the TAPE-1 array, the key sequence, the first 14-bp monomer, and the first 6 bases of the subsequent 14-bp monomer, collectively comprise an intact 20-bp spacer and PAM (FIG. 1A). A set of 16 pegRNAs was further designed to target TAPE-1, with each pegRNA programming a distinct 5-bp insertion (FIG. 1B). The first 2-bp of the insertion is unique to each of the 16 pegRNAs. The remaining 3-bp of the insertion corresponds to the key (GGA). The inventors reasoned that when a pegRNA/PE2-mediated insertion occurred at the active TAPE-1 site, it would: (1) record the identity of the pegRNA via the 2-bp portion of the insertion; (2) inactivate the current active site by disrupting its sequence; and (3) activate the next monomer along the array, as the newly inserted GGA key, together with the subsequent […], creates an intact 20-bp spacer and PAM. In the next iteration of genome editing, a pegRNA-mediated insertion to the second monomer would be recorded while also moving the type-guide to the third monomer, and then to the fourth, the fifth, and so on (FIG. 1C).
TAPE-1 arrays were synthesized and cloned with varying numbers of monomer units (2×TAPE-1, 3×TAPE-1, 5×TAPE-1), and stably integrated these arrays into the genome of HEK293T cells via the piggyBAC system. The resulting cells were transiently transfected with a pool of plasmids designed to express PE2 (pCMV-PE2-P2A-GFP; Addgene #132776) and sixteen pegRNAs, each programmed to insert an NNGGA barcode to TAPE-1, and harvested them after four days. The TAPE-1 region was PCR-amplified from genomic DNA and sequenced.
For each TAPE-1 array, the sequencing reads were categorized into those in which: (1) no editing occurred; (2) the observed pattern was consistent with sequential, directional editing; or (3) the observed pattern was inconsistent with sequential, directional editing (FIG. 1D-F; Table 1). […] However, within the set of reads showing edits, the data were overwhelmingly consistent with sequential, directional editing. For example, with 2×TAPE-1, the second monomer was edited in 22.8±1.7% of reads in which the first monomer was also edited (FIG. 1D). In contrast, the second monomer was only edited in 0.6% of reads in which the first monomer was not edited. […] Data obtained from 3×TAPE-1 and 5×TAPE-1 were also consistent with sequential genome editing. For example, 98.5% (3×TAPE-1) and 99.0% (5×TAPE-1) of reads that were edited at the second monomer were also edited at the first monomer, while 97.6% (3×TAPE-1) and 98.8% (5×TAPE-1) of reads that were edited at the third monomer were also edited at the first and second monomers (FIG. 1E-1F).
Table 1. Read counts and editing efficiencies for 2×TAPE-1, 3×TAPE-1, and 5×TAPE-1. Sequencing reads were grouped based on the observed editing pattern. For example, reads from 2×TAPE-1 array were categorized into four groups: (A) no edit at either TAPE-1 site (‘OO’); (B) 5-bp insertion at the first TAPE-1 site only (‘XO’); (C) 5-bp insertion at the second TAPE-1 site only (‘OX’); or (D) 5-bp insertions at both TAPE-1 sites (‘XX’). For reads from 5×TAPE-1 array, editing groups were simplified by categorizing directional and iterative editing pattern (OOOOO, XO, XXO, XXXO, XXXXO, and XXXXX) and the erroneous editing patterns (OX, NOX, NNOX, and NNNOX, where N can be either O or X). Editing efficiencies at each site were calculated as the fraction of reads with an edit at the site over the total number of reads in which the site had been activated via insertion of the ‘key’ that completed the spacer sequence. […]

iPE2(+) HEK293T = assay: Monoclonal lineage tracing, TargetBC-5×TAPE-1 arrays, sc-RNA-seq; conditions: after 25 days of editing, Dox
Excerpt: The ordered manner in which edits accrue with DNA Typewriter, the use of a prime editor with a Cas9 nickase to insert one of many possible “symbols” at the type-guide, the predefined sequences and locations of potential edits, and the fact that one-and-only-one monomer is an active type-guide at any given moment, have the potential to address all of these limitations at once. […] First, a HEK293T cell line that expresses doxycycline (Dox)-inducible PE2 (iPE2(+) HEK293T) was constructed. A lentiviral construct was designed and cloned that includes: (1) the 5×TAPE-1 sequence, associated with a random 8-bp barcode region (TargetBC) at its 5′-end; (2) a transcription cassette for the TargetBC-5×TAPE-1 with a reverse transcription capture sequence for enrichment during sc-RNA-seq; and (3) a constitutive pegRNA expression cassette that targets TAPE-1 for a 6-bp insertion (NNNGGA; referred to below as InsertBC; GGA is the key sequence for TAPE-1) (FIG. 4A). Lentiviral transduction of this construct to the cell line at a high multiplicity of infection (MOI) was followed by serial dilution to isolate a monoclonal cell line that grew from 1 cell to ˜1.2M cells via ˜20 doublings over 25 days in the presence of Dox (FIG. 4B; FIG. 10A). After harvesting, sc-RNA-seq was used to recover and sequence multiple TargetBC-5×TAPE-1 arrays from each of ˜12,000 cells. […]

[3] = 5-bp insertions, conditional on site activated, per replicate, listed as 3xTAPE-1
[4] = 5-bp insertions, conditional on site activated, per replicate, listed as 5xTAPE-1
[5] = 6-bp ins., per replicate, listed as 5xTAPE-1

TAPE-27: DNA Tape design, FANCF-based spacer, SEQ ID NO: 32 (DNA GAGATCCGGTCTGCAGCATCCGGTCTGCAGC; listed as DNA, chemistry not fully specified; the letters are possibly those of the target site)
Greater efficiency than TAPE-1 (HEK293T cells [1]; 3×TAPE): over 50% | Greater sequential error rate than TAPE-1 (HEK293T cells [1]; 3×TAPE): 2 fold

3×TAPE-1: TAPE-1 array with three monomers, SEQ ID NO: 59 (DNA GGATGATGGTGAGCACGTGATGGTGAGCACGTGATGGTGAGCACGTGATGGTGAGC; listed as DNA, chemistry not fully specified; the letters are possibly those of the target site)
Reads edited at the second monomer that were also edited at the first monomer (HEK293T cells [2]): 98.5% | Reads edited at the third monomer that were also edited at the first and second monomers (HEK293T cells [2]): 97.6% | Editing efficiencies: Site 2 (HEK293T cells [2]; [3]): 0.237 and 0.231 and 0.240 | Editing efficiencies: Site 3 (HEK293T cells [2]; [3]): 0.170 and 0.189 and 0.221 | Editing efficiencies: Site 1 (HEK293T cells [2]; 5-bp insertions, fraction of reads edited at the site over reads in which the site was activated, per transfection replicate, listed as 3xTAPE-1): 0.059 and 0.051 and 0.047 | Overall editing rate: reads exhibiting any editing, of all reads (HEK293T cells [2]): 5.2±0.6%

TAPE-1: DNA Tape: 3-bp key GGA and tandem array of 14-bp monomer TGATGGTGAGCACG, from HEK3; SEQ ID NO: 2 (DNA GGATGATGGTGAGCACGTGATGGTGAGCACG; listed as DNA, chemistry not fully specified; the letters are possibly those of the target site)
Editing rate of the first TAPE-1 monomer (HEK293T cells [2]; PE2 and pegRNAs): ~6% | Editing rates of the second or third monomers, conditional on preceding monomers already edited (HEK293T cells [2]; PE2 and pegRNAs): ~20% | Sequential error rate (in words) (HEK293T cells [1]): one of the lowest sequential error rates among the 48 tested tapes | Fifth sites edited (mean) (iPE2(+) HEK293T): 19.7% | First sites of active arrays edited (mean) (iPE2(+) HEK293T): 96.8%

TAPE-6: DNA Tape design from HEK3 with 4-bp key, SEQ ID NO: 7 (DNA GGACTGATGGTGAGACGTGATGGTGAGACG; listed as DNA, chemistry not fully specified; the letters are possibly those of the target site)
Sequential error rate (in words) (HEK293T cells [1]): lower sequential error rate than TAPE-1

2×TAPE-1: TAPE-1 array with two monomers, SEQ ID NO: 58 (DNA GGATGATGGTGAGCACGTGATGGTGAGCACGTGATGGTGAGC; listed as DNA, chemistry not fully specified; the letters are possibly those of the target site)
Second monomer edited, in reads in which the first monomer was also edited (HEK293T cells [2]): 22.8±1.7% | Second monomer edited, in reads in which the first monomer was not edited (HEK293T cells [2]): 0.6% | Editing efficiencies: Site 2 (HEK293T cells [2]; 5-bp insertions, conditional on site activated, per replicate, listed as 2xTAPE-1): 0.211 and 0.244 and 0.229 | Editing efficiencies: Site 1 (HEK293T cells [2]; 5-bp insertions, fraction of reads edited at the site over reads in which the site was activated, per transfection replicate, listed as 2xTAPE-1): 0.053 and 0.044 and 0.043 | Overall editing rate: reads exhibiting any editing, of all reads (HEK293T cells [2]): 4.7±0.5%

B1: 5×TAPE-1: TAPE-1 array with five monomers, SEQ ID NO: 60 (nucleic acid)
DNA: GGATGATGGTGAGCACGTGATGGTGAGCACGTGATGGTGAGCACGTGATGGTGAGCACGTGATGGTGAGCACGTGATGGTGAGC
modifications: listed as DNA, chemistry not fully specified; the letters are possibly those of the target site
Reads edited at the second monomer that were also edited at the first monomer (HEK293T cells [2]): 99.0% | Reads edited at the third monomer that were also edited at the first and second monomers (HEK293T cells [2]): 98.8% | Editing efficiencies: Site 2 (HEK293T cells [2]; [4]): 0.210 and 0.212 and 0.206 | Editing efficiencies: Site 3 (HEK293T cells [2]; [4]): 0.151 and 0.144 and 0.154 | Editing efficiencies: Site 4 (HEK293T cells [2]; [4]): 0.129 and 0.119 and 0.150 | Editing efficiencies: Site 5 (HEK293T cells [2]; [4]): 0.098 and 0.194 and 0.175 | Editing efficiencies: Site 1 (HEK293T cells [2]; 5-bp insertions, fraction of reads edited at the site over reads in which the site was activated, per transfection replicate, listed as 5xTAPE-1): 0.066 and 0.059 and 0.051 | Editing efficiencies: Site 1 (HEK293T cells [2]; [5]): 0.055 (2×) and 0.057 | Editing efficiencies: Site 2 (HEK293T cells [2]; [5]): 0.180 and 0.177 and 0.181 | Editing efficiencies: Site 3 (HEK293T cells [2]; [5]): 0.083 and 0.078 and 0.089 | Editing efficiencies: Site 4 (HEK293T cells [2]; [5]): 0.099 and 0.059 and 0.265 | Editing efficiencies: Site 5 (HEK293T cells [2]; [5]): 0.364 and 0.900 and 0.000 | Overall editing rate: reads exhibiting any editing, of all reads (HEK293T cells [2]): 5.9±0.8%
